Test results from US20110262564A1, “Treatment of Cancer with Selenium Nanoparticles” (priority 2010, published 2011).

Legend:
[1] = tested on: androgen-independent DU145 cells; assay: CCK-8 cell viability assay, DU145; format: cell-based, human
Method: (§1) To determine the cell viability effect of nano-Se in human prostate cancer cells, androgen-dependent LNCaP cells and androgen-independent DU145 cells were treated with 0, 1, 5, 10, 50 and 100 μM of Nano-Se particle suspensions for 24 and 48 hrs respectively.
(§2) LNCaP (Lot#1735217), and DU-145 (Lot#1145858) human prostate cancer cell lines were purchased from the American Type Culture Collection (ATCC, Manassas, Va., USA). Cells were maintained in 1640 culture medium (Invitrogen Life Technologies, USA) supplemented with 10% (v/v) fetal bovine serum and antibiotics.
(§3) For cell viability assay, cells were seeded into 96-well plates at a density of 1×10^4 cells/well, and 40-50% confluent cells were subsequently treated with nano-Se nanoparticles (1 to 100 μM) or distilled water for 24 or 48 hrs respectively. Treated cells were then collected and measured by Cell Counting Kit-8 (CCK-8) system (Dojindo Laboratory, Kumamoto, Japan). Briefly, CCK-8 solution (10 μl per 100 ul of medium in each well) was added, the plates were then incubated at 37° C. for 1 hour, and the absorbance of each well was read at 450 nm using a microplate reader. Values were shown as means±SE of quadruplicated determinations of a representative experiment (repeated three times). Differences between groups were analyzed using Student's test with significance assumed at p<0.05. All statistical analyses were performed using Origin75 software.
Cells were treated with 0-100 μM nano-Se nanoparticles or MSA for 24 and 48 hours. Cells were then collected and cell viabilities were assayed. The data shown are mean±standard of three samples for each treatment. Differences between groups were analyzed using Student's test with significance assumed at p<0.05.

[2] = tested on: human breast cancer cell line MCF-7 cells; assay: Cell viability assay, MCF-7; format: cell-based
Method: as §3
(§4) In reference to FIGS. 3A and 3B, 4A and 4B, 5A and 5B, 6A and 6B, the effects of nano-Se nanoparticles on cell viability are compared to that of MSA in androgen dependent prostate cancer line LNCaP cells, androgen independent prostate cancer line DU145 cells, human breast cancer cell line MCF-7 cells, human lung carcinoma cell line A549 cells.
(§5) Cells were treated with 0-100 μM nano-Se nanoparticles or MSA for 24 and 48 hours. […] Differences between groups were analyzed using Student's test with significance assumed at p<0.05.

[3] = tested on: human lung carcinoma cell line A549 cells; assay: Cell viability assay, A549; format: cell-based
Method: as §3, §4, §5

[4] = tested on: androgen-dependent LNCaP cells; assay: CCK-8 cell viability assay, LNCaP; format: cell-based, human; conditions: 0-100 μM, 24 and 48 hours
Method: as §1, §2
as §3, with “All statistical analyses were performed using Origin75 software.” left out

androgen receptor [5] = molecular target: T1, androgen receptor (Homo sapiens, UniProt P10275); assay: pGL3-PSA-luc androgen receptor luciferase reporter assay in HEK293; format: cell-based; conditions: PSA promoter construct, HEK293, 10 nM
T1 construct: the full length human wild type androgen receptor cDNA expression plasmid pAR0; expressed in transfected cells; host or cells: HEK293
T1 sequence (P10275 1-920): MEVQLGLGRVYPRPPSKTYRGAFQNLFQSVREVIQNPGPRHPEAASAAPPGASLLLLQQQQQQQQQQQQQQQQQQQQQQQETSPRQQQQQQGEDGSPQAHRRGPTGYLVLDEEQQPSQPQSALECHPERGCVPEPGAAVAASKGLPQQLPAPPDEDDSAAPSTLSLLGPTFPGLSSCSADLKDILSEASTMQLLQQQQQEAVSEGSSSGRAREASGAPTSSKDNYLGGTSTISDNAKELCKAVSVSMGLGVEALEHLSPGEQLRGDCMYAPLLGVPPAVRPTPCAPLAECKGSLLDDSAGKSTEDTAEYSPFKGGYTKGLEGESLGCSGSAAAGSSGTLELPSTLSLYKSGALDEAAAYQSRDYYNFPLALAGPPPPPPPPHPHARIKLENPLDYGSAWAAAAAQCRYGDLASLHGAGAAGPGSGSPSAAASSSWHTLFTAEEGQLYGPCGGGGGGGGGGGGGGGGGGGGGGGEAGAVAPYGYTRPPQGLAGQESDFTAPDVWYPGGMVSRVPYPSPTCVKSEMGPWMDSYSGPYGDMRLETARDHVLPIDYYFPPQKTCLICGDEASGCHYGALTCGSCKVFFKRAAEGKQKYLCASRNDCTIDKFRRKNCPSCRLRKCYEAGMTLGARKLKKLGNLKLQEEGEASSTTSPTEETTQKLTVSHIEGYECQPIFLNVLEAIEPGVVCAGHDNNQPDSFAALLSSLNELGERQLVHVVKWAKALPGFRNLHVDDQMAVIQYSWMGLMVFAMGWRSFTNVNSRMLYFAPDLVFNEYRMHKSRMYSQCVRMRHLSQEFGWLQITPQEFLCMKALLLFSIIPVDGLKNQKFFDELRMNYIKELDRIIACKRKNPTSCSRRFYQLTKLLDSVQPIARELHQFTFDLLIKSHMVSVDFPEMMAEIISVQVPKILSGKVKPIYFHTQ
Method: (§6) Both MMTV-luc and pGL3-PSA-luc plasmids contain Androgen Receptor binding site which recruits androgen receptor and its co-activator to recruit RNA Pol II to the promoter region.
(§7) Cells were then lysed and assayed for luciferase activity using Dual-Luciferase® Reporter Assay System (Promega, Madison, Wis., USA), the experiment was performed in triplicate and repeated at least four times.

androgen receptor [6] = molecular target: T1, androgen receptor; assay: MMTV-luc androgen receptor luciferase reporter assay in HEK293; format: cell-based; conditions: MMTV promoter construct, HEK293, 10 nM
Method: as §6, §7

SMILES	effect on cell viability ([1]; DU145, 0-100 μM, 24 and 48 hours, dose and time-dependent)	effect on cell viability, MSA versus nano-Se ([1]; DU145, 24 hour treatment, all measured concentrations)	effect on cell viability, nano-Se versus MSA ([1]; DU145, 48 hour treatment)	effect on cell viability ([2]; MCF-7, 0-100 μM, 24 and 48 hours, dose and time-dependent)	potency in decreasing cell viability, MSA versus nano-Se ([2]; MCF-7, 24 and 48 hours)	effect on cell viability ([3]; A549, 0-100 μM, 24 and 48 hours, dose and time-dependent)	potency in decreasing cell viability, MSA versus nano-Se ([3]; A549, 24 and 48 hours)	effect on cell viability [4]	androgen receptor dependent promoter activity (luciferase) (androgen receptor [5])	androgen receptor dependent promoter activity (luciferase) (androgen receptor [6])
C[Se](=O)O [MSA, Methylseleninic acid]	decreased cell viability	more significant	comparable	decreased cell viability	more potent in decreasing cell viability	decreased cell viability	more potent in decreasing cell viability	decreased cell viability		
C[C@]1(O)CC[C@H]2[C@@H]3CCC4=CC(=O)CCC4=C3C=C[C@@]21C [R1881]									induced androgen receptor dependent promoter activity	induced androgen receptor dependent promoter activity
